This is an account of results in patent US20200297760A1, “COMPOSITIONS AND METHODS FOR REDUCING IMMUNE RESPONSES AGAINST CHIMERIC ANTIGEN RECEPTORS” (Juno Therapeutics, Inc., priority 2015, published 2020).

No end group written: not given here.

Assay [1] relates to PBMCs of subjects treated with CD19-specific CAR T cells. Nature of the assay: ELISpot assay for specific immune response to individual CAR peptides. The class given is cell-based, human. Particulars: PBMCs of patients with detected CAR-specific immune response after CD19 CAR T cell infusion. The method, then:
Individual ELISpot assays were performed using an anti-cytokine capture antibody to assess the presence or absence of a specific immune response for each of these individual hits (see Berger et al. (2006); Berger et al. (2001); Riddell et al. (1996); and Berger et al. (2005), supra). Specific immune responses against peptides with sequences within the VH portion of the scFv of the CAR were detected in both patients assessed (including regions within the FR1, CDR1, and FR2 regions for one patient and within the FR3 for the other). […] These two overlapping 15-mer peptides had the amino acid sequences […] (SEQ ID NO: 8) and […] (SEQ ID NO: 9, also set forth in SEQ ID NO:165), respectively. In another study following administration with a different CAR having a murine scFv, CD28 transmembrane and costimulatory domains and a CD3 zeta domain, using similar methods, an immune response also was detected for one subject against a pool containing VH portions of an anti-CD19 scFv and for another subject in a pool containing junction portions.

The target in assay [2] is HLA-A*03:01 (Homo sapiens, UniProt P04439). In words: REVEAL Epitope Discovery System in vitro MHC-peptide binding assay. Particulars: REVEAL score, binding normalized to positive control peptide set at 100%; greater than 50 considered good or high affinity binding. The method, then:
(§1) Actual binding affinities for certain HLA class I alleles (A*02:01, A*03:01, A*11:01, and B*08:01) were assessed in vitro for exemplary overlapping 9 amino acid peptide sequences within a portion of the 26 amino acid junction region spanning the CD28 and 4-1BB junction. Specifically, assessment was of a series of overlapping 9-mer peptides derived from the sequence […] (set forth in SEQ ID NO: 7), which contains a portion of the CD28 transmembrane domain and 4-1BB costimulatory domain spanning the junction between the domains (bond joining the two amino acids noted in underline). In addition, a series of overlapping 9-mer peptides of each of a number of different variants of this portion also were assessed, each variant containing a mutation or mutations in this region as described in Example 2.
(§2) The various 9-mer overlapping peptides were synthesized and their purity tested by MALDI-TOF Mass Spectrometry. The synthetic peptides were then incubated with recombinant MHC molecules to assess binding properties using the REVEAL Epitope Discovery System, which is a high-throughput binding assay that measures the degree to which each peptide is able to stabilize a ternary MHC-peptide complex (Prolmmune, Oxford, United Kingdom). Each peptide was separately tested for this ability with respect to each of the HLA class I alleles, normalized to the degree observed for a positive control (known T cell epitope for the relevant allele). The results are reported as a score, in which the binding was normalized to the positive control peptide set at 100%. In this analysis, a score of greater than 50 generally was considered to represent good or high affinity binding.

Assay [3] has as its target HLA-A*11:01 (Homo sapiens, UniProt P04439, A114D/D185E/E176A/F33Y/L180Q/S129P/T187R). Described as above. The conditions noted are these: binding normalized to positive control peptide set at 100%, >50 considered good or high affinity binding. The method, then:
as §1, §2

Assay [4] concerns the target HLA-B*08:01 (Homo sapiens, UniProt P01889, A93T/A95T/D138N/E176V/E187T/K202T/Q94N/R180D/S35A/V36M/Y33D/Y91F). Described as above. The conditions noted are these: binding normalized to positive control peptide set at 100%, >50 considered good or high affinity binding. On the procedure:
as §1, §2

Assay [5] has as its target HLA-A*02:01 (Homo sapiens, UniProt P04439, D140Y/D185E/D98H/E176V/E277Q/G131W/G231S/I119V/I121R/I166T/I218V/L300P/L318F/N151K/N90K/P208A/P217A/Q86G/Q94H/R138H/R169H/T345S). Described as above. Particulars: binding normalized to positive control peptide set at 100%, greater than 50 considered good or high affinity binding. On the procedure: as §1, §2

As to AFIIFWVKRGRKKLL, the “specific immune response against peptide (ELISpot)” value in assay [1] is on record as “specific immune responses also were detected”.

Take FWVKRGRKKLLYIFK: in assay [1], the “specific immune response against peptide (ELISpot)” value is recorded as “specific immune responses also were detected”.

Consider WVHRGRKKL, for which the “A*03:01 In Vitro” value in assay [2] was found to be 3.40. Further, the “A*11:01 In Vitro Score” value in assay [3] stood at 5.60. Besides, in assay [4], the “B*08:01 In Vitro Score” value was 19.20. Besides, the “A*02:01 In Vitro Score” value in assay [5] is recorded as 1.60.

As for WVKRGAKKL, in assay [2], the “A*03:01 In Vitro” value is on record as 4.10. Also, in assay [3], the “A*11:01 In Vitro Score” value stood at 4.60. Besides, in assay [4], the “B*08:01 In Vitro Score” value turned out to be 34.10. The “A*02:01 In Vitro Score” value in assay [5] was 4.70.

In the case of WVKRGHKKL, in assay [2], the “A*03:01 In Vitro” value amounted to 1.40. Also, the “A*11:01 In Vitro Score” value in assay [3] was determined as 2.80. Besides, in assay [4], the “B*08:01 In Vitro Score” value was found to be 47.60. In addition, in assay [5], the “A*02:01 In Vitro Score” value turned out to be 3.90.

On to WVKRGLKKL, for which the “A*03:01 In Vitro” value in assay [2] is given as 10.00. Besides, in assay [3], the “A*11:01 In Vitro Score” value is listed as 22.10. Moreover, the “B*08:01 In Vitro Score” value in assay [4] is 65.70. Moreover, in assay [5], the “A*02:01 In Vitro Score” value came to 24.50.

As for WVKRGNKKL, the “A*03:01 In Vitro” value in assay [2] is on record as 0.90. Also, the “A*11:01 In Vitro Score” value in assay [3] is reported as 4.10. The “B*08:01 In Vitro Score” value in assay [4] was determined as 65.90. In addition, the “A*02:01 In Vitro Score” value in assay [5] is listed as 2.40.

Take WVKRGRKKA: the “A*03:01 In Vitro” value in assay [2] was 0.90. In addition, the “A*11:01 In Vitro Score” value in assay [3] is recorded as 3.10. Also, the “B*08:01 In Vitro Score” value in assay [4] is reported as 3.10. The “A*02:01 In Vitro Score” value in assay [5] is on record as 4.50.

WVKRGRKKL: in assay [2], the “A*03:01 In Vitro” value stood at 13.10. For the same sequence, the “A*11:01 In Vitro Score” value in assay [3] amounted to 4.80. In addition, in assay [4], the “B*08:01 In Vitro Score” value stood at 28.50. In addition, the “A*02:01 In Vitro Score” value in assay [5] is listed as 1.40.

Consider WVKRGRKKS, for which the “A*03:01 In Vitro” value in assay [2] is reported as 0.90. Also, the “A*11:01 In Vitro Score” value in assay [3] turned out to be 6.70. In addition, in assay [4], the “B*08:01 In Vitro Score” value came out at 4.30. In addition, in assay [5], the “A*02:01 In Vitro Score” value stood at 3.90.

Regarding WVKRGSKKL, the “A*03:01 In Vitro” value in assay [2] is reported as 1.90. Moreover, the “A*11:01 In Vitro Score” value in assay [3] worked out at 11.80. The “B*08:01 In Vitro Score” value in assay [4] is 56.10. In assay [5], the “A*02:01 In Vitro Score” value is on record as 3.00.

As to WVLRGRKKL, the “A*03:01 In Vitro” value in assay [2] came out at 0.70. Moreover, the “A*11:01 In Vitro Score” value in assay [3] amounted to 3.20. Further, the “B*08:01 In Vitro Score” value in assay [4] is 4.00. Besides, the “A*02:01 In Vitro Score” value in assay [5] stood at 2.40.

For the sequence WVQRGAKKL, the “A*03:01 In Vitro” value in assay [2] is 2.00. In assay [3], the “A*11:01 In Vitro Score” value amounted to 3.80. In addition, the “B*08:01 In Vitro Score” value in assay [4] amounted to 11.40. In addition, the “A*02:01 In Vitro Score” value in assay [5] came to 3.00.

For the sequence WVQRGNKKA, the “A*03:01 In Vitro” value in assay [2] was found to be 1.20. In assay [3], the “A*11:01 In Vitro Score” value is recorded as 0.80. Moreover, the “B*08:01 In Vitro Score” value in assay [4] worked out at 0.70. Also, the “A*02:01 In Vitro Score” value in assay [5] is listed as 1.90.

With WVQRGNKKL, in assay [2], the “A*03:01 In Vitro” value was 1.50. The “A*11:01 In Vitro Score” value in assay [3] worked out at 10.70. The “B*08:01 In Vitro Score” value in assay [4] came to 32.00. In addition, the “A*02:01 In Vitro Score” value in assay [5] is listed as 4.30.

For WVSRGRKKL, the “A*03:01 In Vitro” value in assay [2] is on record as 2.10. Also, the “A*11:01 In Vitro Score” value in assay [3] is listed as 4.40. In assay [4], the “B*08:01 In Vitro Score” value was found to be 6.20. For the same sequence, in assay [5], the “A*02:01 In Vitro Score” value is 2.30.
